Experimental data from ChEMBL document CHEMBL5108000, “Design and synthesis of novel indole and indazole-piperazine pyrimidine derivatives with anti-inflammatory and neuroprotective activities for ischemic stroke treatment” (Eur J Med Chem, 2022).

Experiments:
[1] = system: BV-2; experiment: Neuroprotective activity against in OGD/R-induced mouse BV-2 cell injury assessed as cell viability at 0.1 uM measured after 24 hrs by MTT assay; type: functional; conditions: read-out: Activity
[2] = system: BV-2; experiment: Neuroprotective activity against in OGD/R-induced mouse BV-2 cell injury assessed as cell viability at 1 uM measured after 24 hrs by MTT assay; type: functional; conditions: read-out: Activity
[3] = system: BV-2; experiment: Neuroprotective activity against in OGD/R-induced mouse BV-2 cell injury assessed as cell viability at 10 uM measured after 24 hrs by MTT assay; type: functional; conditions: read-out: Activity
[4] = system: BV-2; experiment: Antiinflammatory activity in LPS-stimulated mouse BV-2 cells assessed as inhibition of TNF-alpha release at 10 uM and measured after 8 hrs by ELISA; type: functional, cell-based
[5] = system: BV-2; experiment: Antiinflammatory activity in LPS-stimulated mouse BV-2 cells assessed as inhibition of IL-1beta release at 10 uM and measured after 8 hrs by ELISA; type: functional, cell-based
[6] = system: BV-2; experiment: Antiinflammatory activity in LPS-stimulated mouse BV-2 cells assessed as inhibition of IL-6 release at 10 uM and measured after 8 hrs by ELISA; type: functional
[7] = system: BV-2; experiment: Antiinflammatory activity in LPS-stimulated mouse BV-2 cells assessed as inhibition of PGE2 release at 10 uM and measured after 8 hrs by ELISA; type: functional
[8] = system: BV-2; experiment: Antiinflammatory activity in LPS-stimulated mouse BV-2 cells assessed as inhibition of NO production at 10 uM and measured after 24 hrs by Griess method; type: functional, cell-based
[9] = Inhibition of soybean 5-LOX; design: species or system Glycine max

Row | Structure (SMILES) | viability at 0.1 µM [1] [%] | viability at 1 µM [2] [%] | viability at 10 µM [3] [%] | further results
1 | COc1ccc(Cn2nc(C(=O)N3CCN(c4ncccn4)CC3)c3ccccc32)cc1 | 65.1 | 71.9 | 78.6 | –
2 | O=C(c1cn(Cc2ccc(F)cc2)c2ccc(Cl)cc12)N1CCN(c2ncccn2)CC1 | 64.1 | 66.7 | 70.5 | –
3 | O=C(c1cn(Cc2ccc(Cl)cc2Cl)c2ccccc12)N1CCN(c2ncccn2)CC1 | 62.8 | 68 | 71.1 | –
4 | COc1ccc2c(c1)cc(C(=O)N1CCN(c3ncccn3)CC1)n2Cc1ccc(F)cc1 | 64.9 | 66.2 | 69.9 | –
5 | COc1ccc(Cn2cc(C(=O)N3CCN(c4ncccn4)CC3)c3cc(Cl)ccc32)cc1 | 62.3 | 68.7 | 69.7 | –
6 | COc1cccc(Cn2c(C(=O)N3CCN(c4ncccn4)CC3)cc3ccccc32)c1 | 67.2 | 72.6 | 75.6 | –
7 | COc1ccc2c(c1)c(CC(=O)O)c(C)n2C(=O)c1ccc(Cl)cc1 [INDOMETHACIN] | – | – | – | inhibition at 10 µM [4]: 38.9%; inhibition at 10 µM [5]: 34.9%; inhibition at 10 µM [6]: 35.8%; inhibition at 10 µM [7]: 37.1%; inhibition at 10 µM [8]: 15.5%
8 | O=C(c1cn(Cc2cccc(F)c2)c2ccccc12)N1CCN(c2ncccn2)CC1 | 65.3 | 71.9 | 79.2 | –
9 | COc1ccc(Cn2c(C(=O)N3CCN(c4ncccn4)CC3)cc3cc(Cl)ccc32)cc1 | 64.6 | 66 | 70.6 | –
10 | O=C(c1cc2cc(Cl)ccc2n1Cc1ccc(Cl)cc1Cl)N1CCN(c2ncccn2)CC1 | 60.1 | 65.5 | 69.9 | –
11 | O=C(c1cn(Cc2cccc(F)c2)c2ccc(Cl)cc12)N1CCN(c2ncccn2)CC1 | 61.4 | 69.2 | 73.4 | –
12 | CC(c1cc2ccccc2s1)N(O)C(N)=O (configuration not stated) [ZILEUTON] | – | – | – | IC50 [9]: 139 nM
13 | O=C(c1nn(Cc2cccc(F)c2)c2ccccc12)N1CCN(c2ncccn2)CC1 | 66 | 71.6 | 79.7 | –
14 | O=C(c1cc2cc(Cl)ccc2n1Cc1cccc(F)c1)N1CCN(c2ncccn2)CC1 | 63.2 | 67 | 67.8 | –
15 | O=C(c1cc2cc(Cl)ccc2n1Cc1ccc(F)cc1)N1CCN(c2ncccn2)CC1 | 60.6 | 70.1 | 72.5 | –
16 | O=C(c1cc2ccccc2n1Cc1ccc(Cl)cc1Cl)N1CCN(c2ncccn2)CC1 | 63.6 | 67.2 | 68.4 | –
17 | COc1ccccc1Cn1c(C(=O)N2CCN(c3ncccn3)CC2)cc2cc(Cl)ccc21 | 65.4 | 70.2 | 74.6 | –
18 | O=C(c1cn(Cc2ccc(F)cc2)c2ccccc12)N1CCN(c2ncccn2)CC1 | 64.7 | 71.7 | 80.2 | –
19 | COc1ccc(Cn2cc(C(=O)N3CCN(c4ncccn4)CC3)c3ccccc32)cc1 | 62.9 | 72.1 | 74.4 | –
